Test results from US20050187141A1, “Control of gene induced by oxidated lipids in human artery wall cells” (The Regents of the University of California, priority 2000, published 2005).

Columns and labels:
[1] = Lipoprotein cholesterol levels (FPLC) in apo E deficient mice; assay type: in vivo; conditions: 2.0 mg/ml in drinking water, 24 and 48 hrs, FIG. 6
Procedure: Apo E deficient mice were purchased from Jackson Laboratories (Bar Harbor, Me.). The mice were 5 weeks old at the time of the experiments. The animals were maintained on a chow diet containing 4% fat, obtained from Ralston-Purina (St. Louis, Mo.). Synthetic 1,2-ditetradecanoyl-sn-glycero-3-phosphocholine (shown in the figure as circles at 24 h and as triangles at 48 h and abbreviated as DGP; 99+% purity, catalog # P 2663, Lot # 17H8362, Sigma Chemical Company, St. Louis Mo.) was added at 2.0 mg/ml to the drinking water of one group of apo E deficient mice (n=5). […] After 24 and 48 hrs blood was collected from the retroorbital sinus under mild anesthesia into heparinized tubes under an approved protocol of the UCLA Animal Research Committee. Plasma was separated and was fractionated using fast protein liquid chromatography (FPLC). Cholesterol content of the fractions was determined using a kit (Infinity reagent) obtained from Sigma Chemical Company.

fatty streak lesions = assay: Fatty streak lesions in apo E deficient mice; assay type: in vivo; conditions: 1.0 mg/ml in drinking water, 5 weeks, FIG. 9
Procedure: Apo E deficient mice were purchased from Jackson Laboratories (Bar Harbor, Me.). The mice were 5 weeks old at the time of the experiments. The animals were maintained on a chow diet containing 4% fat, obtained from Ralston-Purina (St. Louis, Mo.). One group (n=10) was given in their drinking water 1.0 mg/ml of 1,2-dimyristoyl-sn-glycero-3-phosphocholine (1,2-ditetradecanoyl-sn-glycero-3-phosphocholine) (shown as DGP on the figure, approximately 99% pure, catalog # P 7331, Sigma Chemical Company, St. Louis, Mo.). […] After 5 weeks of treatment, the animals were sacrificed and hearts were harvested and processed according to the methods described by Qiao et al. (1994) Arterioscl Thromb, 14: 1480-1497). In brief, 10 μm thick cryosections were stained with Oil red 0 and hematoxylin and counterstained with fast green and examined by light microscopy for the identification of atheromatous lesions. Lesion size was measured using a 1.0 cm optical grid with 20×20 grid lines. Under 10× magnification, each square corresponded to 1/400 mm^2 (or 2500 μm^2). A square with lipophilic stain was counted as lesion if the visually observed stain covered at least 1/8th of the square.

paraoxonase-1 (PON1) = assay: Paraoxonase activity of plasma fractions of apo E deficient mice; assay type: in vivo; conditions: 2.0 mg/ml in drinking water, FIG. 7
Procedure: Plasma fractions obtained as described in above were analyzed for paraoxonase activity using paraoxon a substrate as reported by Watson et al. (1995) J Clin Invest., 96: 2882-2891). The control samples are shown as diamonds in the figure.

[2] = tested on: Human artery wall cell cocultures; assay: HDL protective capacity and LDL susceptibility to oxidation in human artery wall cell cocultures; assay type: in vivo, apo E deficient mice; conditions: 18 hrs, FIG. 8
Procedure: Plasma fractions obtained as described above were pooled in the region containing LDL and the region containing HDL. Human artery wall cell cocultures were prepared as reported previously (Navab et al. (1997) J Clin Invest., 99: 2005-2019) and used to determine the extent of LDL oxidation as judged by the level of monocyte chemotactic activity generated by oxidized LDL. As the assay controls, to some wells containing the artery wall cocultures was added a standard human LDL (h LDL) at 200 μg LDL protein per ml. To other wells was added h LDL+human HDL (h HDL) at 350 μg HDL protein per ml. The protective capacity of HDL obtained from apo E deficient mice was then tested. To some wells was added standard human LDL (Std. h LDL) at 200 μg LDL protein per ml plus 50 μg of HDL cholesterol obtained from the mice that had received drinking water without additions (Std. h LDL+Cont. E null HDL). To other wells in addition to human LDL, HDL (at 50 μg cholesterol/ml) obtained from mice given drinking water containing 2.0 mg per ml of 1,2-dimyristoyl-sn-glycero-3-phosphocholine (1,2-ditetradecanoyl-sn-glycero-3-phosphocholine) (Std. h LDL+DGP HDL) was added and incubated for 18 hrs. LDL susceptibility to oxidation was additionally determined. […] The values are mean±SD of the number of monocytes counted in 9 high power fields from quadruple wells. […]

lesions = assay: Lesion regression in 10 month old apo E deficient mice; assay type: in vivo; conditions: 1.0 mg/ml in drinking water for five weeks after 10 months on chow, FIG. 10
Procedure: Apo E deficient mice were purchased from Jackson Laboratories (Bar Harbor, Me.). The mice were maintained on a chow diet containing 4% fat, obtained from Ralston-Purina (St. Louis, Mo.) for 10 months at which time one group (n=5) were sacrificed and lesions determined. A second group (n=8) received 1.0 mg/ml of synthetic 1,2-ditetradecanoyl-sn-glycero-3-phosphorylcholine (DGP, approximately 99% pure, catalog # P 7331, Sigma Chemical Company, St. Louis, Mo.) in their drinking water for another five weeks. […] After 5 weeks of treatment, the animals were sacrificed. The hearts and blood vessels from the three groups were harvested and processed as previously reported (Qiao 1994) to determine lesion area.

influenza A = conditions: injected, mice; cited from earlier work
[3] = tested on: human aortic endothelial cells; assay: Monocyte adhesion assay with supernatants of Ox-PAPC treated HAECs; assay type: cell-based; conditions: oligonucleotide 100 nM, 18 h, then Ox-PAPC 50 μg/ml 4 h, FIG. 4
Procedure: (§1) Human aortic endothelial cells were transfected with either ‘antisense’ or ‘sense’ phosphorothioate oligonucleotides (100 nM) to human MKP-1. Eighteen hours later, control and transfected cells were either left untreated or treated with Ox-PAPC (50 μg/ml) for an additional four hours. Following the treatments, cell supernatants were collected and analyzed in a monocyte adhesion assay.

human MKP-1 = assay: Western blot of MKP-1 protein in Ox-PAPC treated HAECs after oligonucleotide transfection; assay type: cell-based; conditions: oligonucleotide 100 nM, 18 h, then Ox-PAPC 50 μg/ml 4 h, FIG. 3A, 3B
Procedure: HAECs were transfected with either ‘antisense’ or ‘sense’ phosphorothioate oligonucleotides (100 nM) to human MKP-1. Eighteen hours later, control and transfected cells were either left untreated or treated with Ox-PAPC (50 μg/ml) for an additional four hours.

[4] = tested on: human aortic endothelial cells; assay: Monocyte chemotactic activity of supernatants of Ox-PAPC treated HAECs; assay type: cell-based; conditions: oligonucleotide 100 nM, 18 h, then Ox-PAPC 50 μg/ml 4 h, FIG. 5A-5C
Procedure: as §1, with “for” for “in a”, “chemotactic activity.” for “adhesion assay.”

CCCCCCCCCCCCCC(=O)OC[C@H](COP(=O)([O-])OCC[N+](C)(C)C)OC(=O)CCCCCCCCCCCCC [1,2-dimyristoyl-sn-glycero-3-phosphocholine]
high density lipoprotein (HDL) levels [1]: dramatic increase
very low density lipoproteins (VLDL) or low density lipoproteins (LDL) [1]: without a significant change
reduction in atherosclerosis (fatty streak lesions): 84.1%
content of paraoxonase-1 (PON1) associated with HDL (paraoxonase-1 (PON1)): dramatic increase
HDL protective capacity (protecting LDL against oxidation) ([2]; HDL from mice given 2.0 mg per ml in drinking water, 50 μg cholesterol/ml): more effective in protecting LDL against oxidation
LDL susceptibility to oxidation ([2]; LDL from mice given 2.0 mg per ml in drinking water, 100 μg LDL cholesterol per ml): more resistant to oxidation by artery walls
lesion area change (lesions): dramatic lesion regression

apo A-I: apo A-I, injected in mice with influenza A in a copending application
signs and symptoms of influenza A (influenza A): greatly ameliorated

antisense oligonucleotides: antisense phosphorothioate oligonucleotide to human MKP-1; 5′-GGAACTCAGTGGAACTCAGG-3′ (SEQ ID NO:2) (antisense GGAACTCAGTGGAACTCAGG; all phosphorothioate, sugars by position and methylation of C not given here)
Ox-PAPC induction of monocyte adherence [3]: did not promote monocyte adhesion
Ox-PAPC-induced MKP-1 protein expression (human MKP-1): prevent the accumulation of MKP-1 protein
monocyte chemotactic activity / monocyte chemotaxis [4]: did not promote monocyte chemotaxis
